Where “and” joins values, the source holds several entries; their conditions need not be identical. Identical values can stand only once. Like-named read-outs stand apart in the source and are kept apart here.
Experiments:
EGFR = biological target: T1, EGFR (Homo sapiens, UniProt P00533); assay: In vitro enzymatic activity assay, EGFR kinase kit; type: biochemical; details: for % Inhibition of EGFR: concentration not given; for IC50: mean ± SE of three independent experiments
T1 construct: purchased Invitrogen PV3872
Procedure: (§1) EGFR and HER2 kinase kits were purchased from Invitrogen. […] ATP solution and a kinase/peptide mixture were prepared. The plate was incubated for 1 h at room temperature. About […] of the developing solution was added to each well. The plate was incubated for 1 h and then read by ELISA Reader (PerkinElmer, USA). Every experiment was repeated three times. Data represented as means ± SE from three independent experiments. Curve fitting was performed using Graph Pad Prism 5.

[1] = system: MDA-MB-231 breast cancer cells; assay: MTT cytotoxicity assay against MDA-MB-231; type: cell-based; details: Homo sapiens, mean ± SE of three independent experiments
Procedure: Cells were cultured using Dulbecco’s Modified Eagle’s Medium (Invitrogen/Life Technologies) supplemented with 10% FBS (Hyclone), 10 µg/mL of insulin, and 1% penicillin–streptomycin. Cells were seeded in 96-well plate with cells density 1.2–1.8 × 10,000 cells/well, in a volume of 100 µL complete growth medium + 100 µL of the tested compound per well and the plate was incubated for 24 h before the MTT assay. […] IC50 was calculated according to the equation of Boltzmann sigmoidal concentration-response curve using Graph Pad Prism 5.

MDA-MB-231 cells = assay: Radiosensitizing activity (MTT with 8 Gy gamma irradiation); type: cell-based; details: Homo sapiens, light or radiation study
Procedure: Irradiation was performed at the National Center for Radiation Research and Technology (NCRRT), Egyptian Atomic Energy Authority (EAEA), using gamma cell-40 (^137Cs) source. Compound 10 was selected to be re-evaluated for the in vitro antiproliferative activity in combination with γ-irradiation using MTT assay. Cells were incubated with compound 10 in molar concentrations of 0.01, 0.1, 1.0, and 10 µM. After 2 h, cells were subjected to a single dose of 8 Gy of γ-radiation at a dose rate of 0.758 rad/s for 17.73 min, and then the anti-proliferative activity was measured 48 h after irradiation. The IC50 of the tested compounds was calculated after irradiation.

[2] = MTT cytotoxicity against normal breast cells; type: cell-based; details: human, 184A1 normal breast cells; MTT assay
Procedure: MDA-MB-231 breast cancer cells and 184A1 normal breast cells of American Type Culture Collection were obtained from VACSERA, Egypt. Cells were cultured using Dulbecco’s Modified Eagle’s Medium (Invitrogen/Life Technologies) supplemented with 10% FBS (Hyclone), 10 µg/mL of insulin, and 1% penicillin–streptomycin. Cells were seeded in 96-well plate with cells density 1.2–1.8 × 10,000 cells/well, in a volume of 100 µL complete growth medium + 100 µL of the tested compound per well and the plate was incubated for 24 h before the MTT assay. The cell layer was rinsed with 0.25% (w/v) trypsin, 0.53 mM EDTA solution, incubated for 2 h, then the absorbance was measured at a wavelength of 570 nm[30]. IC50 was calculated according to the equation of Boltzmann sigmoidal concentration-response curve using Graph Pad Prism 5.

MDA-MB-231 cell line = assay: Cell cycle distribution analysis (propidium iodide, DNA cytometer); type: cell-based, human; details: MDA-MB-231 cells treated at IC50; for %Apoptosis: PreG1, control 0.97; for %G2-M: control 6.44; for %S: control 23.04; for %G0-G1: control 69.55
Procedure: Control cells with known DNA content (peripheral blood mononuclear cells) were used as a reference point for determining the DNA index for the test samples. The cells were stained with propidium iodide stain following the procedure provided by the kit then incubated at room temperature for 5 min in the dark and run on the DNA cytometer. Cell cycle distribution was calculated using […] software (Becton Dickinson Immunocytometry Systems, San Jose, CA, USA).

Bax = Bax expression level; type: cell-based, human; details: MDA-MB-231 cells, compared to the control cells
caspase-3 = assay: Active caspase-3 level immunoassay; type: cell-based, human; details: for Caspase 3: level of active caspase-3, control 53.2
Procedure: Cover and incubate for 2 h at room temperature. […] Incubate for 1 h then add 100 µL anti-rabbit IgG HRP working solution to each well and incubate for 30 min. The absorbance of each well was measured at 450 nm.

HER2 = biological target: T2, HER2 (Homo sapiens, UniProt P04626); assay: In vitro enzymatic activity assay, HER2 kinase kit; type: biochemical; details: mean ± SE of three independent experiments
T2 construct: purchased Invitrogen PV3366
Procedure: as §1

Bcl2 = Bcl2 expression level; type: cell-based, human; details: MDA-MB-231 cells, compared to the control cells

T2 sequence (P04626 23-1255): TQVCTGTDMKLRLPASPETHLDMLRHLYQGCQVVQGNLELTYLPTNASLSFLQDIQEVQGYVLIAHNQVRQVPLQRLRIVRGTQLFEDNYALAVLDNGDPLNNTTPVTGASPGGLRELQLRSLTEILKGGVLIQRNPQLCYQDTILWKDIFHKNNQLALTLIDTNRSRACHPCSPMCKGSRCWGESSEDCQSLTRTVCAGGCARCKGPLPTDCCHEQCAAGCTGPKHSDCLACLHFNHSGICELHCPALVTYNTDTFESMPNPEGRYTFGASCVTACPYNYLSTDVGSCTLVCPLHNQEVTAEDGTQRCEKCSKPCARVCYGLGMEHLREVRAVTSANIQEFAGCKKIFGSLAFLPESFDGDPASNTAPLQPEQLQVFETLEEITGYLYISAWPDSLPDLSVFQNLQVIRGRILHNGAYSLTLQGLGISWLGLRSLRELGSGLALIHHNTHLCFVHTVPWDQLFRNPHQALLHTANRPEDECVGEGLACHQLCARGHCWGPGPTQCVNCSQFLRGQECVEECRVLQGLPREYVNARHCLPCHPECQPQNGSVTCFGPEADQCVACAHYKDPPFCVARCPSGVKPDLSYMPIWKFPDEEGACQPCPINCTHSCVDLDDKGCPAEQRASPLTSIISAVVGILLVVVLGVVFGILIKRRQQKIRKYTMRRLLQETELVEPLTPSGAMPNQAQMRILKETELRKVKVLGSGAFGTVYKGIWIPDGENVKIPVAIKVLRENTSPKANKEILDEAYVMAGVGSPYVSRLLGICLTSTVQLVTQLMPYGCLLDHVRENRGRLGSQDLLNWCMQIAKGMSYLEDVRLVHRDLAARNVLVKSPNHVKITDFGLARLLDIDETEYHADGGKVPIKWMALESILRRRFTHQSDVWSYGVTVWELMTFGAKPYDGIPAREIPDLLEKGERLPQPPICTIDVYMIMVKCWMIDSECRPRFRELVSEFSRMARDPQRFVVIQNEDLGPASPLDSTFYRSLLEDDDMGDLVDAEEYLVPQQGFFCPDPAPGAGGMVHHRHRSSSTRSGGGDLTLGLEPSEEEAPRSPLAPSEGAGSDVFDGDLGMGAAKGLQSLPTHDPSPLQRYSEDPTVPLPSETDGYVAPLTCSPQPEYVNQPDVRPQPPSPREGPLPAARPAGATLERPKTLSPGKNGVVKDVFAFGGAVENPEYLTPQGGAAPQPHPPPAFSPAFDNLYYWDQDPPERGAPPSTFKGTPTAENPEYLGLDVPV
T1 sequence (P00533 25-1210): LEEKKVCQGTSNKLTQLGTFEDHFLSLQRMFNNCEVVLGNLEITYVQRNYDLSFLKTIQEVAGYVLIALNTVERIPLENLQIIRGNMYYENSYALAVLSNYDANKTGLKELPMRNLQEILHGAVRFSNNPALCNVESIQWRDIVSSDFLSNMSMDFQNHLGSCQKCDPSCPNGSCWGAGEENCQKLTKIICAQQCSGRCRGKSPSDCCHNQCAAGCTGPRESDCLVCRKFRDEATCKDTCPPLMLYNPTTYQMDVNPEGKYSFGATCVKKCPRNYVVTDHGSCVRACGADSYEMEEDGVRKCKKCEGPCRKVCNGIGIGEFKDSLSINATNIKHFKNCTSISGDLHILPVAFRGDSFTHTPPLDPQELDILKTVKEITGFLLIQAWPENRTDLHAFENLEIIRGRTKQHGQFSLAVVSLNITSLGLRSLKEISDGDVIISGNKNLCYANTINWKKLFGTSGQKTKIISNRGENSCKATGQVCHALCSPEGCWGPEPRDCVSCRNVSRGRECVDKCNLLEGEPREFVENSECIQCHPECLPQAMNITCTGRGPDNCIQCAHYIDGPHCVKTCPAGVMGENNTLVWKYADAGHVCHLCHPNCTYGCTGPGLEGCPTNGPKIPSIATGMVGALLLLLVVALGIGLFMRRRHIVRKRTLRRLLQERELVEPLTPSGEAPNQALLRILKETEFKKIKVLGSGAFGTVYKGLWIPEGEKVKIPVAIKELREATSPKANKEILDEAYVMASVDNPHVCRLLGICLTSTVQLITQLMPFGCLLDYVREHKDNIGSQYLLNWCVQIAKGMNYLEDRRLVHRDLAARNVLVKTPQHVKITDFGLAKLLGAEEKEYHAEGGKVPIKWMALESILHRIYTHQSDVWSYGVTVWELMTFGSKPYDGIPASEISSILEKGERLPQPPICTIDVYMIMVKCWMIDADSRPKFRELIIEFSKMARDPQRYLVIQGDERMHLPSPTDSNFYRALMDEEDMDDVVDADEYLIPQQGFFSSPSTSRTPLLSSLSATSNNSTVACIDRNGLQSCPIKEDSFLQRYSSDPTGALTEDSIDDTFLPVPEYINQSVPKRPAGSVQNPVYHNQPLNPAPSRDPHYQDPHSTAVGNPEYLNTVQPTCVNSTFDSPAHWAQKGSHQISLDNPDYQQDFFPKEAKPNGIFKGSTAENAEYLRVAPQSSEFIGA

Cc1cc(NC(=O)CSc2nc3cc4ccccc4cc3c(=O)n2-c2ccc(S(N)(=O)=O)cc2)no1 [Compound 5, N-(5-Methylisoxazol-3-yl)-2-[(4-oxo-3–(4-sulfamoylphenyl)-3,4-dihydrobenzo[g]quinazolin-2-yl)thio]acetamide]
% Inhibition of EGFR (EGFR): 42.00% | melting point: 292.4 °C | IC50 [1]: 2.47 ± 0.08 µM

NS(=O)(=O)c1ccc(-n2c(SCC(=O)Nc3nccs3)nc3cc4ccccc4cc3c2=O)cc1 [Compound 6, 2-[(4-Oxo-3-(4-sulfamoylphenyl)-3,4-dihydrobenzo[g]quinazolin-2-yl)thio]-N-(thiazol-2-yl)acetamide]
% Inhibition of EGFR (EGFR): 18.13% | melting point: 304 °C | IC50 [1]: 23.2 ± 1.88 µM

CCOc1ccc2nc(NC(=O)CSc3nc4cc5ccccc5cc4c(=O)n3-c3ccc(S(N)(=O)=O)cc3)sc2c1 [Compound 7, N-(6-Ethoxybenzo[d]thiazol-2-yl)-2-[(4-oxo-3-(4-sulfamoylphenyl)-3,4-dihydrobenzo[g]quinazolin-2-yl)thio]acetamide]
% Inhibition of EGFR (EGFR): 25.98% | melting point: 255.9 °C | IC50 [1]: 26.5 ± 2.14 µM

NS(=O)(=O)c1ccc(-n2c(SCC(=O)Nc3nc4ccc([N+](=O)[O-])cc4s3)nc3cc4ccccc4cc3c2=O)cc1 [Compound 8, N-(6-Nitrobenzo[d]thiazol-2-yl)-2-[(4-oxo-3-(4-sulfamoylphenyl)-3,4-dihydrobenzo[g]quinazolin-2-yl)thio]acetamide]
% Inhibition of EGFR (EGFR): 54.61% | melting point: 278.3 °C | IC50 [1]: 2.91 ± 0.03 µM

NS(=O)(=O)c1ccc(-n2c(SCC(=O)Nc3nnc(C(F)(F)F)s3)nc3cc4ccccc4cc3c2=O)cc1 [Compound 9, 2-[(4-Oxo-3-(4-sulfamoylphenyl)-3,4-dihydrobenzo[g]quinazolin-2-yl)thio]-N-(5-(trifluoromethyl)-1,3,4-thiadiazol-2-yl)acetamide]
% Inhibition of EGFR (EGFR): 52.49% | melting point: 257 °C | IC50 [1]: 2.19 ± 0.05 µM

Cc1ccc(NC(=O)CSc2nc3cc4ccccc4cc3c(=O)n2-c2ccc(S(N)(=O)=O)cc2)cc1C [Compound 10, N-(3,4-Dimethylphenyl)-2-[(4-oxo-3-(4-sulfamoylphenyl)-3,4-dihydrobenzo[g]quinazolin-2-yl)thio]acetamide]
IC50 (EGFR): 3.9 ± 0.03 µM | melting point: 232.8 °C | IC50 (MDA-MB-231 cells; no irradiation, read-out: IC50 before Irradiation): 0.31 ± 0.01 µM | IC50 (MDA-MB-231 cells; single dose of 8 Gy γ-radiation, measured 48 h after irradiation, read-out: IC50 after Irradiation): 0.22 ± 0.03 µM | IC50 at 24 h [2]: 84.5 ± 0.72 µM | %Apoptosis (MDA-MB-231 cell line): 14.84% | %G2-M (MDA-MB-231 cell line): 17.52% | %S (MDA-MB-231 cell line): 18.28% | %G0-G1 (MDA-MB-231 cell line): 49.36% | IC50 [1]: 0.31 ± 0.01 µM | Bax (Folds) (Bax): 9 Folds and 9.372 Folds | Caspase 3 Folds (caspase-3; increase compared to the control cells): 10 Folds and 10.25 Folds | Caspase 3 (caspase-3): 545.7 pg/mL | IC50 (HER2): 5.4 ± 0.12 µM | Bcl2 (Folds) (Bcl2): 0.14 Folds and 0.1379 Folds

Cc1ccc(C)c(NC(=O)CSc2nc3cc4ccccc4cc3c(=O)n2-c2ccc(S(N)(=O)=O)cc2)c1 [Compound 11, N-(2,5-Dimethylphenyl)-2-[(4-oxo-3-(4-sulfamoylphenyl)-3,4-dihydrobenzo[g]quinazolin-2-yl)thio]acetamide]
IC50 (EGFR): 2.55 ± 0.17 µM | melting point: 279.3 °C | IC50 [1]: 0.28 ± 0.01 µM | IC50 (HER2): 31.31 ± 0.31 µM

Cc1cccc(C)c1NC(=O)CSc1nc2cc3ccccc3cc2c(=O)n1-c1ccc(S(N)(=O)=O)cc1 [Compound 12, N-(2,6-Dimethylphenyl)-2-[(4-oxo-3-(4-sulfamoylphenyl)-3,4-dihydrobenzo[g]quinazolin-2-yl)thio]acetamide]
% Inhibition of EGFR (EGFR): 41.86% | melting point: 300.5 °C | IC50 [1]: 2.19 ± 0.09 µM

Cc1cc([N+](=O)[O-])ccc1NC(=O)CSc1nc2cc3ccccc3cc2c(=O)n1-c1ccc(S(N)(=O)=O)cc1 [Compound 13, N-(2-Methyl-4-nitrophenyl)-2-[(4-oxo-3-(4-sulfamoylphenyl)-3,4-dihydrobenzo[g]quinazolin-2-yl)thio]acetamide]
IC50 (EGFR): 10.2 ± 0.1 µM | melting point: 293.8 °C | IC50 [1]: 0.4 ± 0.01 µM | IC50 (HER2): 13.01 ± 0.09 µM

NS(=O)(=O)c1ccc(-n2c(SCC(=O)Nc3c[nH]c(=O)[nH]c3=O)nc3cc4ccccc4cc3c2=O)cc1 [Compound 14, N-(2,4-Dioxo-1,2,3,4-tetrahydropyrimidin-5-yl)-2-[(4-oxo-3-(4-sulfamoylphenyl)-3,4-dihydrobenzo[g]quinazolin-2-yl)thio]acetamide]
IC50 (EGFR): 4.11 ± 0.02 µM | melting point: 280 °C | IC50 [1]: 0.37 ± 0.01 µM | IC50 (HER2): 26.03 ± 0.22 µM

Cn1c(NC(=O)CSc2nc3cc4ccccc4cc3c(=O)n2-c2ccc(S(N)(=O)=O)cc2)cc(=O)n(C)c1=O [Compound 15, N-(1,3-Dimethyl-2,6-dioxo-1,2,3,6-tetrahydropyrimidin-4-yl)-2-[(4-oxo-3-(4-sulfamoylphenyl)-3,4-dihydrobenzo[g]quinazolin-2-yl)thio]acetamide]
% Inhibition of EGFR (EGFR): 21.45% | melting point: 307.7 °C | IC50 [1]: 21.8 ± 1.63 µM

NS(=O)(=O)c1ccc(-n2c(SCC(=O)Nc3cnccn3)nc3cc4ccccc4cc3c2=O)cc1 [Compound 16, 2-[(4-Oxo-3-(4-sulfamoylphenyl)-3,4-dihydrobenzo[g]quinazolin-2-yl)thio]-N-(pyrazin-2-yl)acetamide]
% Inhibition of EGFR (EGFR): 59.66% | melting point: 205.7 °C | IC50 [1]: 0.32 ± 0.01 µM

NS(=O)(=O)c1ccc(-n2c(SCC(=O)Nc3cccc4ccccc34)nc3cc4ccccc4cc3c2=O)cc1 [Compound 17, N-(Naphthalene-1-yl)-2-[(4-oxo-3-(4-sulfamoylphenyl)-3,4-dihydrobenzo[g]quinazolin-2-yl)thio]acetamide]
% Inhibition of EGFR (EGFR): 8.71% | melting point: 241.6 °C | IC50 [1]: 161 ± 4.69 µM

NS(=O)(=O)c1ccc(-n2c(SCC(=O)Nc3ccc4c(c3)C(=O)c3ccccc3C4=O)nc3cc4ccccc4cc3c2=O)cc1 [Compound 18, N-(9,10-Dioxo-9,10-dihydroanthracen-2-yl)-2-[(4-oxo-3-(4-sulfamoylphenyl)-3,4-dihydrobenzo[g]quinazolin-2-yl)thio]acetamide]
IC50 (EGFR): 9.66 ± 0.08 µM | melting point: 256.7 °C | IC50 [1]: 0.26 ± 0.01 µM | IC50 (HER2): 3.2 ± 0.04 µM

C#Cc1cccc(Nc2ncnc3cc(OCCOC)c(OCCOC)cc23)c1 [Erlotinib, N-(3-ethynylphenyl)-6,7-bis(2-methoxyethoxy)quinazolin-4-amine, reference compound]
IC50 at 24 h [2]: 102 ± 3.55 µM | %Apoptosis (MDA-MB-231 cell line): 17.33% | %G2-M (MDA-MB-231 cell line): 24.81% | %S (MDA-MB-231 cell line): 16.31% | %G0-G1 (MDA-MB-231 cell line): 41.55% | Caspase 3 (caspase-3): 480.1 pg/mL

Reference: publication PMC6522976, “Novel sulphonamide benzoquinazolinones as dual EGFR/HER2 inhibitors, apoptosis inducers and radiosensitizers” (Journal of Enzyme Inhibition and Medicinal Chemistry, 2019)
